Assay results from paper PMC9571290, “Preliminary Structure–Activity Relationship Study of the MMV Pathogen Box Compound MMV675968 (2,4-Diaminoquinazoline) Unveils Novel Inhibitors of Trypanosoma brucei brucei” (Molecules, 2022).

Columns and labels:
[1] = in vitro; details: African green monkey
[2] = ferric ion reducing antioxidant power (FRAP); details: Fe^3+-reducing activity
Experimental: Iron is one of the vital elements for all parasites, including trypanosomes, as it plays a key role in pathogenesis and the host immune response. Therefore, iron bioavailability reducing agents to the parasite could be potential candidates for drug development against trypanosomiasis. To this end, we determined the capacity of the test compounds to reduce iron from ferric to ferrous status using the method described by Benzie et al.. Briefly, 25 µL of each compound (7 and 10) was added to 25 µL of a solution of Fe^3+ prepared at 1.2 mg/mL in distilled water in a 96-well microplate. The plate was incubated for 15 min at room temperature in darkness, after which 50 µL of ortho-phenanthroline (0.2% in methanol) was added to achieve final compound concentrations ranging from 400 µM to 0.19 µM. Plates were reincubated for 15 min, and the absorbance was measured at 510 nm. Ascorbic acid was used as a positive control and tested at concentrations ranging from 100 to 0.048 μg/mL. The median reducing concentration (RC50) values of compounds were determined through sigmoidal concentration–response curves using GraphPad Prism version 8.0 software.

COc1ccccc1NCc1ccc2nc(N)nc(N)c2c1 [Analog 7, 6-(((2-methoxyphenyl)amino)methyl)quinazoline-2,4-diamine]
CC50 at 48 h [1]: 24.8 ± 0.87 µM
median reducing concentration (RC50) [2]: 96.37 µM

Nc1nc(N)c2cc(CNc3cc(Cl)ccc3Cl)ccc2n1 [Analog 10, 6-(((2,5-dichlorophenyl)amino)methyl)quinazoline-2,4-diamine]
CC50 at 48 h [1]: 78.2 ± 0.8 µM
median reducing concentration (RC50) [2]: > 400 µM
